In patent US20050197338A1, “Substituted pyrazole urea compounds for the treatment of inflammation” (priority 2003, published 2005) one finds IC50 data, which are given here for 22 molecules.

In this experiment the target is T1, human IKK-2 (rhIKK-2 homodimer) (Homo sapiens, UniProt O14920).
T1 construct: FLAG (DYKDDDDKD) (C); made in house; host or cells: insect cells (baculovirus, pFastBac)
T1 sequence (O14920 1-756): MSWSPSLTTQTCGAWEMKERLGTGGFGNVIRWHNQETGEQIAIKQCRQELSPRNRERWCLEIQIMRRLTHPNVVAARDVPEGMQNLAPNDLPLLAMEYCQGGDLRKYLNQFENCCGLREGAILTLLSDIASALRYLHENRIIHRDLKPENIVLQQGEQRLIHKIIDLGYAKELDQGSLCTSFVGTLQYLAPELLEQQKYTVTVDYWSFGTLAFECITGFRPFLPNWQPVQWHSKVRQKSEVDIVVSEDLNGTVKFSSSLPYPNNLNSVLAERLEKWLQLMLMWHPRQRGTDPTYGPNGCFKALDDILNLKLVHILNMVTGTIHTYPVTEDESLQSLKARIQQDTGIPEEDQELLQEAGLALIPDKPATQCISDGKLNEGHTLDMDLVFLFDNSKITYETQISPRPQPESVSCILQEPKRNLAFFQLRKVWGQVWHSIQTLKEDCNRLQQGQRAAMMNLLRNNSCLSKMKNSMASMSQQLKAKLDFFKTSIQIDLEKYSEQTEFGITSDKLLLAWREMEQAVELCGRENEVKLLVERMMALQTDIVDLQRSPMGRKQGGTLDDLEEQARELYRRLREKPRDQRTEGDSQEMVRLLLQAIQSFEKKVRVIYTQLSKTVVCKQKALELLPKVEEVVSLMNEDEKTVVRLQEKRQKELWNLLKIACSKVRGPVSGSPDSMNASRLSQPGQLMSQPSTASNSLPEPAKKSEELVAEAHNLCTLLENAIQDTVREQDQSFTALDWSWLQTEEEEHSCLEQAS
As to the kind of experiment: IKK-2 Resin Enzyme Assay (Human IKK-2 Enzyme Assay). The class given is biochemical. To be noted: human IKK-2, resin enzyme assay; read-out: IC50 (μM) hIKK-2. An excerpt: Materials: SAM^2™96 Biotin capture plates were from Promega. Anti-FLAG affinity resin, FLAG-peptide, NP-40 (Nonidet P-40), BSA, ATP, ADP, AMP, LPS (E. coli serotype 0111:B4), and dithiothreitol were obtained from Sigma Chemicals. Antibodies specific for NEMO (IKK-γ) (FL-419), IKK-1 (H-744), IKK-2(H-470) and IκBa(C-21) were purchased from Santa Cruz Biotechnology. Ni-NTA resin was purchased from Qiagen. Peptides were purchased from American Peptide Company. Protease inhibitor cocktail tablets were from Boehringer Mannheim. Sephacryl S-300 column was from Pharmacia LKB Biotechnology. Centriprep-10 concentrators with a molecular weight cutoff of 10 kDa and membranes with molecular weight cut-off of 30 kDa were obtained from Amicon. [γ-^33P] ATP (2500 Ci/mmol) and [γ-^32P] ATP (6000 Ci/mmol) were purchased from Amersham. The other reagents used were of the highest grade commercially available.
Cloning and Expression: cDNAs of human IKK-1 and IKK-2 were amplified by reverse transcriptase-polymerase chain reaction from human placental RNA (Clonetech). hlKK-1 was subcloned into pFastBac HTa (Life Technologies) and expressed as N-terminal His6-tagged fusion protein. The hlKK-2 cDNA was amplified using a reverse oligonucleotide primer which incorporated the peptide sequence for a FLAG-epitope tag at the C-terminus of the IKK-2 coding region (DYKDDDDKD). The hlKK-2:FLAG cDNA was subcloned into the baculovirus vector pFastBac. The rhIKK-2 ([…]) mutant was constructed in the same vector used for wild type rhIKK-2 using a QuikChange™ mutagenesis kit (Stratagene). Viral stocks of each construct were used to infect insect cells grown in 40 L suspension culture. […] Cell lysates were stored at −80° C. until purification of the recombinant proteins was undertaken as described below.
Enzyme Isolation: All purification procedures were carried out at 4° C. unless otherwise noted. Buffers used are: buffer A: 20 mM Tris-HCl, pH 7.6, containing 50 mM NaCl, 20 mM NaF, 20 mM β-Glycerophosphate, 500 μM sodium orthovanadate, 2.5 mM metabisulfite, 5 mM benzamidine, 1 mM EDTA, 0.5 mM EGTA, 10% glycerol, 1 mM DTT, 1× Complete™ protease inhibitors; buffer B: same as buffer A, except 150 mM NaCl, and buffer C: same as buffer A, except 500 mM NaCl.
Isolation of rhIKK-2 homodimer: A 10-liter culture of baculovirus-expressing IKK-2 tagged with FLAG peptide was centrifuged and the cell pellet (MOI=0.1 and 1=72 h) was re-suspended in buffer A. These cells were microfluidized, and centrifuged at 100,000×g for 45 min. Supernatant was passed over a G-25 column equilibrated with Buffer A. Protein peak was collected and incubated with anti-FLAG affinity resin on a rotator overnight in buffer B. The resin was washed in batch with 10-15 bed volumes of buffer C. Washed resin was poured into a column and rhIKK-2 homodimer was eluted using 5 bed volumes of buffer B containing FLAG peptide. 5 mM DTT, 0.1% NP-40 and BSA (concentrated to 0.1% in final amount) was added to the eluted enzyme before concentrating in using an Amicon membrane with a molecular weight cut-off of 30 kDa. Enzyme was aliquoted and stored at −80° C.
IKK-2 Resin Enzyme Assay: IKK-2 kinase activity was measured using a biotinylated IκBα peptide (Gly-Leu-Lys-Lys-Glu-Arg-Leu-Leu-Asp-Asp-Arg-His-Asp-Ser32-Gly-Leu-Asp-Ser36-Met-Lys-Asp-Glu-Glu) (American Peptide Co.). 20 μL of the standard reaction mixture contained 5 μM biotinylated IκBα peptide, 0.1 μCi/reaction [γ-^33P] ATP (Amersham) (about 1×10^5 cpm), 1 μM ATP (Sigma), 1 mM DTT (Sigma), 2 mM MgCl2 (Sigma), 2 mM MnCl2 (Sigma), 10 mM NaF (Sigma), 25 mM Hepes (Sigma) buffer, pH 7.6 and 20 μL enzyme solution and 10 μL inhibitor in a final volume of 50 μL. After incubation at 25° C. for 30 min, 150 μL resin (Dowex anion-exchange resin AG1X8 200-400 mesh) in 900 mM formate, pH 3.0 was added to each well to stop the reaction. Resin was allowed to settle for 1 h and 50 μL of supernatant was removed to a Micolite-2 flat bottom plate (Dynex). […]

Some results are limits rather than exact numbers.

Regarding `NC(=O)Nc1cn(-c2ccc(I)cc2Cl)nc1C(N)=O` [Example 251, 4-[(aminocarbonyl)amino]-1-(2-chloro-4-iodophenyl)-1H-pyrazole-3-carboxamide], the IC50 (usually the concentration that inhibits the measured activity by half) came out at 0.662 µM.
On to `CC(C)(C)OC(=O)COc1ccc(F)cc1-c1ccc(-n2cc(NC(N)=O)c(C(N)=O)n2)cc1` [Example 182, tert-butyl [(4′-{3-(aminocarbonyl)-4-[(aminocarbonyl)amino]-1H-pyrazol-1-yl}-5-fluoro-1,1′-biphenyl-2-yl)oxy]acetate], for which the IC50 amounted to 11.2 µM.
The figure for `COc1cccc(-c2ccc(-n3cc(NC(N)=O)c(C(N)=O)n3)cc2)c1F` [Example 120, 4-[(aminooarbonyl)amino]-1-(2′-fluoro-3′-methoxy-1,1′-biphenyl-4-yl)-1H-pyrazole-3-carboxamide] is 0.972 µM.
The value for `COC(=O)c1ccc(-n2cc(NC(N)=O)c(C(N)=O)n2)cc1` [Example 184, methyl 4-{3-(aminocarbonyl)-4-[(aminocarbonyl)amino]-1H-pyrazol-1-yl}benzoate] was 5.49 µM; that for `NC(=O)Nc1cn(-c2cccc(-c3cccc(C(=O)NC4CC4)c3)c2)nc1C(N)=O` [Example 81] was 1.65 µM.
The value for `CCNC(=O)COc1ccc(F)cc1-c1ccc(-n2cc(NC(N)=O)c(C(N)=O)n2)cc1` [Example 257, 4-[(aminocarbonyl)amino]-1-{5′-fluoro-2′-[2-(ethylamino)-2-oxoethoxy]-1,1′-biphenyl-4-yl}-1H-pyrazole-3-carboxamide] was 1.35 µM; that for `NC(=O)Nc1cn(-c2ccc([S+]([O-])C3CCCCC3)cc2)nc1C(N)=O` (stereo not shown) [Example 191, 1-(3-carbamoyl-1-(4-(cyclohexylsulfinyl)phenyl)-1H-pyrazol-4-yl)urea] was 2.54 µM.
`CN1CCOc2cc(-c3cccc(-n4cc(NC(N)=O)c(C(N)=O)n4)c3)ccc21` [Example 64, 4-[(aminocarbonyl)amino]-1-[3-(4-methyl-3,4-dihydro-2H-1,4-benzoxazin-7-yl)phenyl]-1H-pyrazole-3-carboxamide]: the IC50 was 6.08 µM.
The figure for `NC(=O)Nc1cn(-c2ccc(-c3cccc(OCc4cccnc4)c3)cc2)nc1C(N)=O` [Example 170, 4-[(aminocarbonyl)amino]-1-[3′-(pyridin-3-ylmethoxy)-1,1′-biphenyl-4-yl]-1H-pyrazole-3-carboxamide] is 1.58 µM.
The value for `Cc1cc(-n2cc(NC(N)=O)c(C(N)=O)n2)ccc1-c1ccc(F)cc1OCC#N` [Example 244, 1-(2′-Cyanomethoxy-4′-fluoro-2-methyl-biphenyl-4-yl)-4-ureido-1H-pyrazole-3-carboxylic acid amide] was 0.866 µM.
The value for `Cc1cc(-c2cccc(-n3cc(NC(N)=O)c(C(N)=O)n3)c2)ccc1F` [Example 346, 4-[(aminocarbonyl)amino]-1-(4′-fluoro-3′-methyl-1,1′-biphenyl-3-yl)-1H-pyrazole-3-carboxamide] was greater than 20 µM; that for `Cc1cc(-n2cc(NC(N)=O)c(C(N)=O)n2)ccc1-c1ccccc1O` [Example 240, 1-(2′-Hydroxy-2-methyl-biphenyl-4-yl)-4-ureido-1H-pyrazole-3-carboxylic acid amide] was 2.02 µM.
With `NC(=O)Nc1cn(-c2cccc(-c3cc(F)cc(F)c3)c2)nc1C(N)=O` [Example 350, 4-[(aminocarbonyl)amino]-1-(3′,5′-difluoro-1,1′-biphenyl-3-yl)-1H-pyrazole-3-carboxamide], the IC50 was greater than 20 µM.
The figure for `COc1ccc(Cl)cc1-c1cccc(-n2cc(NC(N)=O)c(C(N)=O)n2)c1` [Example 365, 4-[(aminocarbonyl)amino]-1-(5′-chloro-2′-methoxy-1,1′-biphenyl-3-yl)-1H-pyrazole-3-carboxamide] is 11.6 µM; for `NC(=O)Nc1cn(-c2ccc(-c3ccccc3O)c(F)c2)nc1C(N)=O` [Example 261, 4-[(aminocarbonyl)amino]-1-(2-fluoro-2′-hydroxy-1,1′-biphenyl-4-yl)-1H-pyrazole-3-carboxamide] it is 1.18 µM; for `NC(=O)Nc1cn(-c2cccc(-c3cccc(-c4ccccc4)c3)c2)nc1C(N)=O` [Example 372] it is greater than 20 µM.
As for `N#CCOc1ccccc1-c1ccc(-n2cc(NC(N)=O)c(C(N)=O)n2)c(F)c1` [Example 250, 4-[(aminocarbonyl)amino]-1-[2′-(cyanomethoxy)-3-fluoro-1,1′-biphenyl-4-yl]-1H-pyrazole-3-carboxamide], the IC50 turned out to be 0.279 µM.
The value for `NC(=O)Nc1cn(-c2ccc(-c3cc(F)ccc3OCC(=O)O)cc2)nc1C(N)=O` [Example 259, [(4′-{3-(aminocarbonyl)-4-[(aminocarbonyl)amino]-1H-pyrazol-1-yl}-5-fluoro-1,1′-biphenyl-2-yl)oxy]acetic acid] was 4.01 µM; that for `NC(=O)Nc1cn(-c2ccc(-c3ccc(C(=O)NCc4ccccc4)c(F)c3)cc2)nc1C(N)=O` [Example 151, 4-[(aminocarbonyl)amino]-1-{4′-[(benzylamino)carbonyl]-3′-fluoro-1,1′-biphenyl-4-yl}-1H-pyrazole-3-carboxamide] was 0.31 µM.
On to `NC(=O)Nc1cn(-c2ccc(Sc3ccc(Cl)cc3)cc2)nc1C(N)=O` [Example 290, 1-(1-(4-(4-chlorophenylthio)phenyl)-3-carbamoyl-1H-pyrazol-4-yl)urea], for which the IC50 is 4.56 µM.
The value for `CNC(=O)COc1cccc(-c2ccc(-n3cc(NC(N)=O)c(C(N)=O)n3)cc2)c1` [Example 383, 4-[(aminocarbonyl)amino]-1-{3′-[2-(methylamino)-2-oxoethoxy]-1,1′-biphenyl-4-yl}-1H-pyrazole-3-carboxamide] was 0.07 µM; that for `NC(=O)Nc1cn(-c2ccc(Cl)c(Cl)c2)nc1C(N)=O` [Example 188, 4-[(aminocarbonyl)amino]-1-(3,4-dichlorophenyl)-1H-pyrazole-3-carboxamide] was 0.46 µM.
